# Test results taken from patent US9695155B2, “Herbicidal substituted pyrimidinyloxy benzene compounds” (E. I. DU PONT DE NEMOURS AND COMPANY, priority 2013, dated 2017).
# Legend:
# [1] = tested on: large (Lg) crabgrass; experiment: Test A postemergence; type: in vivo, Digitaria sanguinalis
# Method in brief: (§1)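 Pre- and postemergence greenhouse screen. Soil: loam + sand. Spray carrier: solvent mixture, non-phytotoxic, with surfactant. Post timing at 1–2 leaves, height 2–10 cm. Readout: visual injury on a 0–100 scale roughly 10 days after application, untreated plants as reference.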
# [2] = tested on: pigweed; experiment: Test A postemergence; type: in vivo, Amaranthus retroflexus
# Method in brief: as §1
# [3] = tested on: pigweed; experiment: Test A preemergence; type: in vivo, Amaranthus retroflexus; details: for Pigweed plant response rating: 0 to 100 scale, 0 no effect, 100 complete control, approx. 10 days; for Plant response rating, Pigweed: 125 g ai/ha, 0 to 100 scale where 0 is no effect and 100 is complete control
# Method in brief: as §1
# [4] = tested on: large (Lg) crabgrass; experiment: Test A preemergence; type: in vivo, Digitaria sanguinalis; details: for Crabgrass, Large plant response rating: 500 g ai/ha, approx. 10 days
# Method in brief: as §1
# [5] = tested on: morningglory; experiment: Test A postemergence; type: in vivo, Ipomoea spp.
# Method in brief: as §1
# [6] = tested on: wheat; experiment: Test A postemergence; type: in vivo, Triticum aestivum
# Method in brief: as §1
# [7] = tested on: sedge, umbrella; experiment: Test B flooded paddy test; type: in vivo, Cyperus difformis; details: Flood, 250 g ai/ha; 0 to 100 scale where 0 is no effect and 100 is complete control
# Method in brief: (§2)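 Plants at 2-leaf stage; pots flooded to 3 cm above soil and compound applied directly into paddy water, depth held throughout. After 13 to 15 days in greenhouse, visual rating versus controls on 0 (no effect) to 100 (complete control) scale.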
# [8] = tested on: velvetleaf; experiment: Test A postemergence; type: in vivo, Abutilon theophrasti
# Method in brief: as §1
# [9] = tested on: barnyardgrass; experiment: Test B flooded paddy test; type: in vivo, Echinochloa crus-galli; details: Flood, 250 g ai/ha; 0 to 100 scale where 0 is no effect and 100 is complete control
# Method in brief: as §2
# [10] = tested on: barnyardgrass; experiment: Test A postemergence; type: in vivo, Echinochloa crus-galli
# Method in brief: as §1
# [11] = tested on: rice; experiment: Test B flooded paddy test; type: in vivo, Oryza sativa; details: Flood, 250 g ai/ha; 0 to 100 scale where 0 is no effect and 100 is complete control
# Method in brief: as §2
# [12] = tested on: morningglory; experiment: Test A preemergence; type: in vivo, Ipomoea spp.; details: for Morningglory plant response rating: 0 to 100 scale, 0 no effect, 100 complete control, approx. 10 days; for Plant response rating, Morningglory: 125 g ai/ha, 0 to 100 scale where 0 is no effect and 100 is complete control
# Method in brief: as §1
# [13] = tested on: velvetleaf; experiment: Test A preemergence; type: in vivo, Abutilon theophrasti; details: for Velvetleaf plant response rating: 0 to 100 scale, 0 no effect, 100 complete control, approx. 10 days; for Plant response rating, Velvetleaf: 125 g ai/ha, 0 to 100 scale where 0 is no effect and 100 is complete control
# Method in brief: as §1
# [14] = tested on: corn; experiment: Test A preemergence; type: in vivo, Zea mays; details: for Corn plant response rating: 500 g ai/ha, approx. 10 days
# Method in brief: as §1
# [15] = tested on: Heteranthera limosa; experiment: Test B flooded paddy test; type: in vivo; details: Flood, 250 g ai/ha; 0 to 100 scale where 0 is no effect and 100 is complete control
# Method in brief: as §2
# [16] = tested on: barnyardgrass; experiment: Test A preemergence; type: in vivo, Echinochloa crus-galli; details: for Barnyardgrass plant response rating: 500 g ai/ha, approx. 10 days
# Method in brief: as §1
# [17] = tested on: giant foxtail; experiment: Test A postemergence; type: in vivo, Setaria faberii
# Method in brief: as §1
# [18] = tested on: corn; experiment: Test A postemergence; type: in vivo, Zea mays
# Method in brief: as §1
# [19] = tested on: wheat; experiment: Test A preemergence; type: in vivo, Triticum aestivum; details: for Wheat plant response rating: 0 to 100 scale, 0 no effect, 100 complete control, approx. 10 days; for Plant response rating, Wheat: 125 g ai/ha, 0 to 100 scale where 0 is no effect and 100 is complete control
# Method in brief: as §1
# [20] = tested on: giant foxtail; experiment: Test A preemergence; type: in vivo, Setaria faberii; details: for Foxtail, Giant plant response rating: 0 to 100 scale, 0 no effect, 100 complete control, approx. 10 days; for Plant response rating, Foxtail, Giant: 125 g ai/ha, 0 to 100 scale where 0 is no effect and 100 is complete control
# Method in brief: as §1
# [21] = 1000 g ai/ha, 0 to 100 scale, 0 no effect, 100 complete control
# [22] = 125 g ai/ha, 0 to 100 scale where 0 is no effect and 100 is complete control
# [23] = 500 g ai/ha, 0 to 100 scale, 0 no effect, 100 complete control
# [24] = 500 g ai/ha, 0 to 100 scale where 0 is no effect and 100 is complete control
# [25] = 0 to 100 scale, 0 no effect, 100 complete control
compound,measurement,setting,value
FC(F)(F)COc1cccc(Oc2ncc(Cl)cn2)c1-n1cc(Br)cn1 [Compound 69],"Plant response rating, Crabgrass, Large",[1]; [21],80
same,"Plant response rating, Pigweed",[2]; [21],100
same,Pigweed plant response rating,[3]; 1000 g ai/ha,100
same,"Plant response rating, Crabgrass, Large",[4]; [21],90
same,"Plant response rating, Morningglory",[5]; [21],30
same,"Plant response rating, Wheat",[6]; [21],30
same,"Plant response rating, Sedge, Umbrella",[7],0
same,"Plant response rating, Velvetleaf",[8]; [21],60
same,"Plant response rating, Barnyardgrass",[9],0
same,"Plant response rating, Barnyardgrass",[10]; [21],50
same,"Plant response rating, Rice",[11],0
same,Morningglory plant response rating,[12]; 1000 g ai/ha,10
same,Velvetleaf plant response rating,[13]; 1000 g ai/ha,80
same,"Plant response rating, Corn",[14]; [21],0
same,"Plant response rating, Ducksalad",[15],0
same,"Plant response rating, Barnyardgrass",[16]; [21],70
same,"Plant response rating, Foxtail, Giant",[17]; [21],70
same,"Plant response rating, Corn",[18]; [21],20
same,Wheat plant response rating,[19]; 1000 g ai/ha,20
same,"Foxtail, Giant plant response rating",[20]; 1000 g ai/ha,90
N#Cc1cccc(Oc2ncc(Br)cn2)c1-n1cc(Cl)cn1 [Compound 71],"Plant response rating, Crabgrass, Large",[1]; [22],70
same,"Plant response rating, Crabgrass, Large",[1]; [23],100
same,"Plant response rating, Pigweed",[2]; [22],100
same,"Plant response rating, Pigweed",[2]; [24],100
same,"Plant response rating, Pigweed",[3],100
same,Pigweed plant response rating,[3]; 500 g ai/ha,100
same,"Plant response rating, Crabgrass, Large",[4]; [22],100
same,"Crabgrass, Large plant response rating",[4]; [25],100
same,"Plant response rating, Morningglory",[5]; [22],70
same,"Plant response rating, Morningglory",[5]; [24],90
same,"Plant response rating, Wheat",[6]; [22],10
same,"Plant response rating, Wheat",[6]; [24],40
same,"Plant response rating, Sedge, Umbrella",[7],70
same,"Plant response rating, Velvetleaf",[8]; [22],90
same,"Plant response rating, Velvetleaf",[8]; [24],100
same,"Plant response rating, Barnyardgrass",[9],0
same,"Plant response rating, Barnyardgrass",[10]; [22],80
same,"Plant response rating, Barnyardgrass",[10]; [23],90
same,"Plant response rating, Rice",[11],30
same,"Plant response rating, Morningglory",[12],90
same,Morningglory plant response rating,[12]; 500 g ai/ha,90
same,"Plant response rating, Velvetleaf",[13],70
same,Velvetleaf plant response rating,[13]; 500 g ai/ha,100
same,"Plant response rating, Corn",[14]; [22],30
same,Corn plant response rating,[14]; [25],40
same,"Plant response rating, Ducksalad",[15],0
same,"Plant response rating, Barnyardgrass",[16]; [22],60
same,Barnyardgrass plant response rating,[16]; [25],100
same,"Plant response rating, Foxtail, Giant",[17]; [22],80
same,"Plant response rating, Foxtail, Giant",[17]; [24],90
same,"Plant response rating, Corn",[18]; [22],30
same,"Plant response rating, Corn",[18]; [23],60
same,"Plant response rating, Wheat",[19],20
same,Wheat plant response rating,[19]; 500 g ai/ha,40
same,"Plant response rating, Foxtail, Giant",[20],100
same,"Foxtail, Giant plant response rating",[20]; 500 g ai/ha,100
Cc1cnc(Oc2cccc(C#N)c2-n2cc(Br)cn2)nc1 [Compound 76],"Plant response rating, Crabgrass, Large",[1]; [22],70
same,"Plant response rating, Crabgrass, Large",[1]; [23],100
same,"Plant response rating, Pigweed",[2]; [22],90
same,"Plant response rating, Pigweed",[2]; [24],100
same,"Plant response rating, Pigweed",[3],100
same,Pigweed plant response rating,[3]; 500 g ai/ha,100
same,"Plant response rating, Crabgrass, Large",[4]; [22],100
same,"Crabgrass, Large plant response rating",[4]; [25],100
same,"Plant response rating, Morningglory",[5]; [22],60
same,"Plant response rating, Morningglory",[5]; [24],90
same,"Plant response rating, Wheat",[6]; [22],0
same,"Plant response rating, Wheat",[6]; [24],10
same,"Plant response rating, Sedge, Umbrella",[7],75
same,"Plant response rating, Velvetleaf",[8]; [22],80
same,"Plant response rating, Velvetleaf",[8]; [24],100
same,"Plant response rating, Barnyardgrass",[9],0
same,"Plant response rating, Barnyardgrass",[10]; [22],60
same,"Plant response rating, Barnyardgrass",[10]; [23],100
same,"Plant response rating, Rice",[11],0
same,"Plant response rating, Morningglory",[12],0
same,Morningglory plant response rating,[12]; 500 g ai/ha,80
same,"Plant response rating, Velvetleaf",[13],90
same,Velvetleaf plant response rating,[13]; 500 g ai/ha,100
same,"Plant response rating, Corn",[14]; [22],20
same,Corn plant response rating,[14]; [25],30
same,"Plant response rating, Ducksalad",[15],70
same,"Plant response rating, Barnyardgrass",[16]; [22],50
same,Barnyardgrass plant response rating,[16]; [25],100
same,"Plant response rating, Foxtail, Giant",[17]; [22],60
same,"Plant response rating, Foxtail, Giant",[17]; [24],90
same,"Plant response rating, Corn",[18]; [22],10
same,"Plant response rating, Corn",[18]; [23],80
same,"Plant response rating, Wheat",[19],0
same,Wheat plant response rating,[19]; 500 g ai/ha,30
same,"Plant response rating, Foxtail, Giant",[20],80
same,"Foxtail, Giant plant response rating",[20]; 500 g ai/ha,100
